Laboratory results published in PMC9427252, “Study on the Absorption of Arsenic Species in Realgar Based on the Form and Valence” (Evidence-based Complementary and Alternative Medicine : eCAM, 2022).
Read-outs that look alike come from different tables or passages of the source.

Legend:
[1] = tested on: duodenum, jejunum, and ileum
Caco-2 cells = settings: A to B, realgar artificial intestinal dissolved solution
[2] = rat plasma, oral 0.1 g/kg realgar

O=[As](O)(O)O [AsV, Arsenate]
Cout/Cin ([1]; duodenum and jejunum): > 1 | Cout/Cin ([1]; ileum): < 1 | Cout/Cin ([1]; realgar intestinal perfusate, duodenum, time 15): 3.14 ± 0.81 | Cout/Cin ([1]; realgar intestinal perfusate, duodenum, time 30): 3.16 ± 0.91 | Cout/Cin ([1]; realgar intestinal perfusate, duodenum, time 45): 3.01 ± 0.96 | Cout/Cin ([1]; realgar intestinal perfusate, duodenum, time 60): 3.20 ± 1.04 | Cout/Cin ([1]; realgar intestinal perfusate, duodenum, time 75): 3.17 ± 0.86 | Cout/Cin ([1]; realgar intestinal perfusate, ileum, time 15): 0.78 ± 0.11 | Cout/Cin ([1]; realgar intestinal perfusate, ileum, time 30): 0.77 ± 0.10 | Cout/Cin ([1]; realgar intestinal perfusate, ileum, time 45): 0.76 ± 0.12 | Cout/Cin ([1]; realgar intestinal perfusate, ileum, time 60): 0.78 ± 0.11 | Cout/Cin ([1]; realgar intestinal perfusate, ileum, time 75): 0.80 ± 0.13 | Cout/Cin ([1]; realgar intestinal perfusate, jejunum, time 15): 1.54 ± 0.46 | Cout/Cin ([1]; realgar intestinal perfusate, jejunum, time 30): 1.46 ± 0.39 | Cout/Cin ([1]; realgar intestinal perfusate, jejunum, time 45): 1.50 ± 0.28 | Cout/Cin ([1]; realgar intestinal perfusate, jejunum, time 60): 1.34 ± 0.25 | Cout/Cin ([1]; realgar intestinal perfusate, jejunum, time 75): 1.28 ± 0.24 | Cumulative transport amount (Caco-2 cells; 30 min): 0.23 ± 0.07 ng | Cumulative transport amount (Caco-2 cells; 60 min): 0.41 ± 0.06 ng | Cumulative transport amount (Caco-2 cells; 90 min): 1.01 ± 0.16 ng | Cumulative transport amount (Caco-2 cells; 120 min): 0.84 ± 0.02 ng | Cumulative transport amount (Caco-2 cells; 180 min): 1.20 ± 0.15 ng | AUC(0-24) [2]: 47.310 ng·h/mL | AUC(0-∞) [2]: 47.687 ng·h/mL | Cmax [2]: 0.021626 ng/mL | MRT(0-∞) [2]: 2.790 h | Tmax [2]: 0.393 h | t1/2 [2]: 1.775 h

O[As](O)O [AsIII, Arsenite]
MRT(0-∞) (rat, in vivo, po, 0.1 g/kg): 9.649 h
